Measured values reported in ChEMBL document CHEMBL1201862, “PubChem BioAssay data set” (2004).
Activity calls are given as the source filed them.

How the values were obtained:
[1] = growth inhibition of yeast DHODH-expressing 3D7 parasites – SYBR Green, dry powder samples, dose response (AID 1159570); format: functional, cell-based;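 note: parasite growth measured after 72 hours of compound exposure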
[2] = toxicity to human HepG2 hepatoma cells – cell-based, plate reader, dry powder samples, cytotoxicity control, dose response (AID 1159569); format: functional;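 note: inhibitor potency with signal falling toward the positive control level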
[3] = P. falciparum Dd2 growth inhibitors, dose response, SYBR Green, cherry-picked samples (AID 1159567); format: functional, cell-based
[4] = Dd2 malaria parasite growth inhibition potency – SYBR Green, dry powder samples, dose response (AID 1159566); format: functional, cell-based;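 note: potency for growth inhibition with lower SYBR green DNA signal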
[5] = toxicity to human hepatoma HepG2 cells – cell-based, cherry-picked samples, cytotoxicity control, dose response (AID 1159577); format: functional
[6] = growth inhibition of PfATP4-mutant resistant parasites – NITD609-resistant line, SYBR Green, dry powder, dose response (AID 1159571); format: functional, cell-based;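 note: parasites synchronized at ring stage by sorbitol before testing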
[7] = biological target: T1, Oxysterols receptor LXR-beta (Homo sapiens, UniProt P55055); format: functional, cell-based;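 note: agonist activity at LXR measured by a cell-based luminescence readout across a dose range, run as a counterscreen for daf-12 agonists; HEK293 cells with Gal4-LXR fusion and GAL4-driven luciferase reporter; potency for activation of Gal4-LXR reporter so compounds are agonists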
T1 sequence (P55055 whole entry): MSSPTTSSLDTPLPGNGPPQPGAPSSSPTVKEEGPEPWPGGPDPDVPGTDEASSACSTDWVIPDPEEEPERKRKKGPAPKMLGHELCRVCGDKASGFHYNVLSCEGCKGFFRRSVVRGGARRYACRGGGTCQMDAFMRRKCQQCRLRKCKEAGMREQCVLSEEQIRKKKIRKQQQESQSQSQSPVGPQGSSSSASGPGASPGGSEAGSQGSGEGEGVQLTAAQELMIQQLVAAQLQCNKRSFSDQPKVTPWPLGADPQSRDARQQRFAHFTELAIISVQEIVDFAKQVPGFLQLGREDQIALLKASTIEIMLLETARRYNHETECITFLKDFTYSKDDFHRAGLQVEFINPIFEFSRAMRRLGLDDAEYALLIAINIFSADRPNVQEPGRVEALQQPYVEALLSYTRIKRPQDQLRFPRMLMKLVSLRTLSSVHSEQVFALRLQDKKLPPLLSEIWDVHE

[8] = viability of PTEN-deleted HCT116 cells – cell-based, HCT116 PTEN knockout, dose response (AID 1047); format: functional;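 note: HCT116 colon tumor cells with PTEN knocked out; cells exposed to compound for 60 hours before readout; potency for loss of cell viability measured by luminescence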
[9] = viability of HCT116 lacking mutant beta-catenin – cell-based, human colon tumor, dose response (AID 1045); format: functional;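 note: HCT116 colon tumor cells with beta catenin knocked out; cells exposed to compound for 60 hours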
[10] = biological target: Induced myeloid leukemia cell differentiation protein Mcl-1 (Homo sapiens, UniProt Q07820); format: functional
[11] = biological target: T2, Microphthalmia-associated transcription factor (Homo sapiens, UniProt O75030); test: reducers of TRPM1 reporter luminescence, concentration series – cell-based, SK-MEL-5, cherry-picked, set 3, MITF inhibitor project, dose response (AID 493073); format: functional;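 note: SK-MEL-5 melanoma cells with luciferase driven by the MITF target TRPM1 promoter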
T2 sequence (O75030 whole entry): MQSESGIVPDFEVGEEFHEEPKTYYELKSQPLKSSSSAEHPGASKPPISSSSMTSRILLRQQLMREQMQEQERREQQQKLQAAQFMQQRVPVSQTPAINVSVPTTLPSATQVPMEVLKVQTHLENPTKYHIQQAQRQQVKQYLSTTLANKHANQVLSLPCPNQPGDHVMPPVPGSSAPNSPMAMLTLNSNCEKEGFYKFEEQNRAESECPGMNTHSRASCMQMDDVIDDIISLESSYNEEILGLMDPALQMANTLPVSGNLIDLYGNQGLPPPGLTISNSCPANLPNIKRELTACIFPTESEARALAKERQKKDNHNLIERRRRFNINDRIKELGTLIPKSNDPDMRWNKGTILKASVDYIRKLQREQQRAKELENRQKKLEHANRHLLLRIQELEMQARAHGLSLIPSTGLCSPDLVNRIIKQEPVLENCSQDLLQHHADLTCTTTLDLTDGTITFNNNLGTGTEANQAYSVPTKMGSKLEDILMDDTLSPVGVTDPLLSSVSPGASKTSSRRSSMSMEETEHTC

[12] = reduced cellular PGC1a acetyl-lysine signal – cell-based, cherry-picked samples, dose response (AID 720514); format: functional;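 note: potency may reflect raised or lowered acetylation signal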
[13] = biological target: Matrix metalloproteinase-14 (Homo sapiens, UniProt P50281); test: Dose Response confirmation of uHTS hits for a small molecule inhibitors of MT1-MMP activation in a fluorescence assay set 2.; format: functional
[14] = biological target: Potassium channel subfamily K member 9 (Homo sapiens, UniProt Q9NPC2); test: KCNK9 flux blockade, concentration-response – cell-based, FluxOR thallium flux, selectivity assay for TASK1 inhibitor project, SAR follow-up (AID 652211); format: functional;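 note: potency is for inhibitors of the channel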
[15] = biological target: Potassium channel subfamily K member 3 (Homo sapiens, UniProt O14649); test: inhibition of human KCNK3 channel flux – CHO cells, FluxOR thallium flux, SAR follow-up (AID 652212); format: functional
[16] = biological target: RNA-editing ligase 1, mitochondrial (Trypanosoma brucei brucei, UniProt P86926); test: inhibition of trypanosome RNA editing ligase – biochemical, fluorescence, Trypanosoma brucei, dose response (AID 1117295); format: functional
Paired box protein Pax-8 = Paired box protein Pax-8 (Homo sapiens, UniProt Q06710); test: PAX8 transcriptional activity inhibition in RMG-I – RMG-I cells, luciferase, cherry-pick, dose response (AID 687027); format: functional, cell-based;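 note: luciferase reporter driven by Pax8 target thyroperoxidase promoter measured by SteadyGlo luminescence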
[17] = toxicity toward immortalized ovarian surface epithelium – cell-based, plate reader, dry powder samples, cytotoxicity control for PAX8 inhibitor project, dose response (AID 743045); format: functional
[18] = A2780 cell killing – plate reader, dry powder samples, cytotoxicity control, dose response (AID 743046); format: functional, cell-based
[19] = OVCAR-3 cell viability loss – plate reader, dry powder samples, PAX8 inhibitor project, dose response (AID 743044); format: functional, cell-based
[20] = IGROV1 cell killing – plate reader, dry powder samples, PAX8 inhibitor project, dose response (AID 743043); format: functional, cell-based; settings: IGROV-1
[21] = general cell-killing toxicity readout – plate reader, dry powder samples, cytotoxicity control for PAX8 inhibitor project, dose response (AID 743021); format: functional, cell-based
[22] = OVCAR8 cell viability loss – plate reader, dry powder samples, PAX8 project, dose response (AID 743197); format: functional, cell-based; settings: OVCAR-8
[23] = viability loss in THP-1 monocytes – THP-1 cells, cytotoxicity control for Vif-APOBEC3G degradation inhibitor project, dose response (AID 1117359); format: functional; settings: THP-1

Potassium channel subfamily K member 3, sequence (O14649 whole entry): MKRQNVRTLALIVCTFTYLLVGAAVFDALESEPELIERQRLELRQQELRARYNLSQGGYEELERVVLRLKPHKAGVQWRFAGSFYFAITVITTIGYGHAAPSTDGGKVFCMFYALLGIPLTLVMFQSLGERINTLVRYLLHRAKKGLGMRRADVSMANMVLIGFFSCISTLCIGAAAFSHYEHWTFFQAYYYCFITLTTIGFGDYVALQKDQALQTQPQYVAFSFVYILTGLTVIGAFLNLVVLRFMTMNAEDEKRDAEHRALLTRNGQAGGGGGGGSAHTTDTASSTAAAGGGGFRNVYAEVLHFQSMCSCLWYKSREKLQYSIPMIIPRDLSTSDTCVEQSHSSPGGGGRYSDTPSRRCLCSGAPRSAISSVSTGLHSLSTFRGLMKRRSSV
Induced myeloid leukemia cell differentiation protein Mcl-1, sequence (Q07820 whole entry): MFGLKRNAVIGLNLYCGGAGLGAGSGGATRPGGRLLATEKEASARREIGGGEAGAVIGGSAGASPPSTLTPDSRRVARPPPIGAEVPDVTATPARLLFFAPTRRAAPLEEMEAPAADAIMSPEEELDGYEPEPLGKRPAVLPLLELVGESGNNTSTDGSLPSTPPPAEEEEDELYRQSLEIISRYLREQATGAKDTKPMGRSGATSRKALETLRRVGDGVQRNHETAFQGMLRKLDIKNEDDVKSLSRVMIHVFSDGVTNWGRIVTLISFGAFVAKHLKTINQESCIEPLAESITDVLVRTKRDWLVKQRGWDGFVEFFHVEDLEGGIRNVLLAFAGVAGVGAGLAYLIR
RNA-editing ligase 1, mitochondrial, sequence (P86926 whole entry): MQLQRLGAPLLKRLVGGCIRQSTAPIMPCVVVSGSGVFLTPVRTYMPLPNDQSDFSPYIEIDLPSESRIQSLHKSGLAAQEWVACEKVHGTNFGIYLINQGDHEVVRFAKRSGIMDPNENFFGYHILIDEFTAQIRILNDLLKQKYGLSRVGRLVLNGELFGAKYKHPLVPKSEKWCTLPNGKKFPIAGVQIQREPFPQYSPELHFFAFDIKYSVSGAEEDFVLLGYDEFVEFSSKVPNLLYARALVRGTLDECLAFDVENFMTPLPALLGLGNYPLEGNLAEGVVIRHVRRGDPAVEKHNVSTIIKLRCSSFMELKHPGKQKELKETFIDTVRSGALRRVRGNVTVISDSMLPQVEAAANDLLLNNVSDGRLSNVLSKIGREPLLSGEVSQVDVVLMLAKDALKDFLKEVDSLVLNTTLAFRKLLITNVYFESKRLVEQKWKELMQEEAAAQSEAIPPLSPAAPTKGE
Potassium channel subfamily K member 9, sequence (Q9NPC2 whole entry): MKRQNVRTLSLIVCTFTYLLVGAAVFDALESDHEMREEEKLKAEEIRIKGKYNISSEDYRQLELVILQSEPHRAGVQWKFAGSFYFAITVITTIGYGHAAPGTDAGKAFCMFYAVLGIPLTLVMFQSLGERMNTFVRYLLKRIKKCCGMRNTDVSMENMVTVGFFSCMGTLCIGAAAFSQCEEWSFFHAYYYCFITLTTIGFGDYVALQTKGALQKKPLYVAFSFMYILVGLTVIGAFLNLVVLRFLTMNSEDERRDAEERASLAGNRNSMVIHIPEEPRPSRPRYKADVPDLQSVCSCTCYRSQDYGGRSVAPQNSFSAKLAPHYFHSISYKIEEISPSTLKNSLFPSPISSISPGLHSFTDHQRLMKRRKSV
Paired box protein Pax-8, sequence (Q06710 whole entry): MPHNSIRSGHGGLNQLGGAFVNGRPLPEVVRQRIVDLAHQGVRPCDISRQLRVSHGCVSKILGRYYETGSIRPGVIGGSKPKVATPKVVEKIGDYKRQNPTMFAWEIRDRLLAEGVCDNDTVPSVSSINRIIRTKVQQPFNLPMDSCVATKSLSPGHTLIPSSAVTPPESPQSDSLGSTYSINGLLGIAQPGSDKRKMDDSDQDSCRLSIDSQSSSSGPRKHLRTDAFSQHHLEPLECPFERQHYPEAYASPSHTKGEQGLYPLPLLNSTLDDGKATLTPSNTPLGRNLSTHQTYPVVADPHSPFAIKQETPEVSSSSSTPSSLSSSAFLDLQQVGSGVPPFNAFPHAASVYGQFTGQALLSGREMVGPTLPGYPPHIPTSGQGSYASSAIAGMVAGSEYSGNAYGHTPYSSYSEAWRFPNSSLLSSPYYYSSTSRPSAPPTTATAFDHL

Which results are given for `COc1ccc2c3c(n(C)c2c1)[C@H](CO)N(Cc1ccc(Cl)cc1)CC31CCN(CC2CC2)CC1`?
AC50 [1]: 2.85 µM (active); AC50 [2]: 19.8 µM (active); AC50 [3]: 2.33 µM (active); AC50 [4]: 2.23 µM (active); AC50 [5]: > 39 µM (inactive); AC50 [6]: 2.65 µM (active)

For `OCCN1CCN(c2cnc(-c3ccsc3)cn2)CC1`, which EC50 [7] is on record?
Its EC50 is > 67.5 µM (inactive).

For `C=CCn1c(C)cc(C(=O)Cn2ncc(Cl)c(Cl)c2=O)c1C`, which EC50 [8] is on record?
Its EC50 is 3.08 µM (active).

What about the EC50 [9] of the same compound?
The EC50 was 2.12 µM (active).

And the IC50 [10]?
The IC50 was 5.14 µM (active).

What about the AC50 [11] of the same compound?
Its AC50 is 9.97 µM (active).

And the AC50 [12]?
The AC50 was 5.68 µM (active).

With `COc1ccc(OCC(=O)NNc2c3ccccc3nc3ccccc23)cc1` as the compound, how does the IC50 [13] read?
The IC50 was > 80 µM (inactive).

With `COc1cccc(CN2CCCCN3[C@H](CO)[C@@H](c4ccc(C#Cc5cccnc5)cc4)[C@H]3C2)c1` as the compound, how does the AC50 [1] read?
The AC50 was 2.04 µM (active).

What about the AC50 [2] of the same compound?
The AC50 was 14 µM (active).

What about the AC50 [3] of the same compound?
The AC50 was 0.859 µM (active).

And the AC50 [4]?
Its AC50 is 0.56 µM (active).

And the AC50 [5]?
The AC50 was 24 µM (active).

And the AC50 [6]?
The AC50 was 0.934 µM (active).

For `Cc1cccc(C(=O)Nc2cccc(NC(=O)c3cccc(C(F)(F)F)c3)c2)c1`, which IC50 [14] is on record?
The IC50 was 3.06 µM (active).

And the IC50 [15]?
The IC50 was 0.009 µM (active).

For `COC(=O)C1=C(C)N(Cc2cccc(C(F)(F)F)c2)C(NCC2CC2)=NC1c1ccccc1C(F)(F)F` (stereo not given), which IC50 [16] is on record?
The IC50 was > 96.6 µM (inactive).

With `CS(=O)(=O)Nc1ccc2c(c1)[C@@H]1C[C@@H](CC(=O)NCc3ccc(-c4ccccc4)cc3)O[C@@H](CO)[C@@H]1O2` as the compound, how does the AC50 (Paired box protein Pax-8) read?
The AC50 was 3.2 µM (active).

What about the AC50 [17] of the same compound?
The AC50 was 11.7 µM (active).

What about the AC50 [18] of the same compound?
Its AC50 is 17.7 µM (active).

What about the AC50 [19] of the same compound?
Its AC50 is 9.08 µM (active).

And the AC50 [20]?
The AC50 was 17.6 µM (active).

What about the AC50 [21] of the same compound?
Its AC50 is 65.6 µM (active).

And the AC50 [22]?
Its AC50 is 16.5 µM (active).

For `Cc1ccccc1S(=O)(=O)Cc1ccc(C(=O)NCCCN2CCC(C)CC2)o1`, which CC50 [23] is on record?
The CC50 was > 40 µM (active).
